The record followed here is BindingDB's records for doi:10.1021/bi401354d (Pfizer, 2013).

The structures appear in SMILES notation. pKi: −log10 of the molar value.

This experiment has as its target T1, Myeloperoxidase (Homo sapiens, UniProt P05164).
T1 sequence (P05164 whole entry): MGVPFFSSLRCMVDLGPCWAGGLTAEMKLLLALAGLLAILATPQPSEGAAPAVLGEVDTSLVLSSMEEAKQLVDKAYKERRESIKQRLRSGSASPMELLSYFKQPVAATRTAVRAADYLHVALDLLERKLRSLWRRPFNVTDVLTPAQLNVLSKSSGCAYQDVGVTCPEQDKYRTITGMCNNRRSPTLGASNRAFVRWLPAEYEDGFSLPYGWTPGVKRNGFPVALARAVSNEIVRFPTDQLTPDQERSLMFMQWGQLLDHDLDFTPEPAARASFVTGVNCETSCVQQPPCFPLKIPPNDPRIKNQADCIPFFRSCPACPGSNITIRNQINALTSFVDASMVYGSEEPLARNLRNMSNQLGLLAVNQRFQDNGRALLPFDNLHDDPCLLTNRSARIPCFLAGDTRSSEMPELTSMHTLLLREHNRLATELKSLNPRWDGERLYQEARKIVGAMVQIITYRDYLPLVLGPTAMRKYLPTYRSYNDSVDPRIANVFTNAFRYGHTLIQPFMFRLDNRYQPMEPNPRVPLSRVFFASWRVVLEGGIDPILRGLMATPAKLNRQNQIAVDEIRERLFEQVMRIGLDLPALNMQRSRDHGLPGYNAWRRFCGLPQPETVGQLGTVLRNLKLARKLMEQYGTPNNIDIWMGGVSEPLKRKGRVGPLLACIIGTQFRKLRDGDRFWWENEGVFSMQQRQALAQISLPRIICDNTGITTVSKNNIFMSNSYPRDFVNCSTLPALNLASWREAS
Put plainly: MPO Activity Assay. The settings on record: pH 7.4. Here is the method:
Assay mixtures (100 µL) contained 50 mM NaPi (pH 7.4), 150 mM NaCl, 1 mM DTPA, 2% DMSO, the indicated concentrations of H2O2, and Amplex Red. The reactions were initiated by the addition of 100 pM MPO. The fluorescent changes were measured at 530 (excitation) and 580 nm (emission).
In turn, `CCOC(C)Cn1c(=S)[nH]c(=O)c2[nH]cnc21` (stereo not drawn) [3‐(2‐ethoxypropyl)‐2‐sulfanylidene‐1,9‐ dihydropurin‐6‐one (A)] showed a pKi of 6.38. `CCO[C@H](C)Cn1c(=S)[nH]c(=O)c2[nH]cnc21` [3‐[(2R)‐2‐ethoxypropyl]‐2‐sulfanylidene‐1,9‐ dihydropurin‐6‐one (C)] had a pKi of 6.26. For `CCO[C@@H](C)Cn1c(=S)[nH]c(=O)c2[nH]cnc21` [3‐[(2S)‐2‐ethoxypropyl]‐2‐sulfanylidene‐1,9‐ dihydropurin‐6‐one (D)] the value was 6.37.

As usually defined, the pKi is the negative decadic logarithm of the Ki, by convention in mol/L. Low values mean a large Ki, high ones a small Ki.
